Assay results reported in patent US8293774B2, “Optically active (R)-aryloxypropionic acid amides and herbicidal composition comprising same” (Kyung Nong Corporation, priority 2007, dated 2012).

Columns and labels:
[1] = test system: ECHOG (Echinoch crus-galli Beauv. var. caudata Kitagawa, barnyard grass); experiment: Weed control test, foliage treatment (Test Example 1, Table 7); assay type: in vivo; details: Echinochloa crus-galli, foliar, 3-leaf stage, read-out: Plant damage (herbicidal activity), visually evaluated, ECHOG; for pest or weed control at 25 g/ha: 0.025 kg/ha; for pest or weed control at 100 g/ha: 0.1 kg/ha; for pest or weed control at 200 g/ha: 0.2 kg/ha
Description: (§1) Seeds of rice, wheat, soy bean, barley, corn, common sorgum, barnyard grass, large crabgrass, creek grass, green foxtail and fall panicum were placed in sandy loam in 600 cm^2 pots and covered with soil. After keeping the pots in a greenhouse at 20 to 30° C. allowing growth of the plants to the 3-leaf stage of the barnyard grass, 2,000 l/ha of an emulsion obtained by diluting with water a mixture of 1 part by weight of a test compound, 5 parts by weight of acetone and 1 part by weight of an emulsifying agent (Tween 80, Junsei) was applied to the surface of the foliage of the plants. The plant damage at 10 days and 20 days after the foliage treatment was visually evaluated from the level of 1 to 100% by comparison with the untreated control: […]

[2] = test system: SETVIR (Setaria viridis (L.) Beauv, green foxtail); experiment: as above; assay type: in vivo; details: Setaria viridis, foliar, read-out: Plant damage (herbicidal activity), visually evaluated, SETVIR; for pest or weed control at 25 g/ha: 0.025 kg/ha; for pest or weed control at 100 g/ha: 0.1 kg/ha; for pest or weed control at 200 g/ha: 0.2 kg/ha
Description: as §1

[3] = test system: ARTHIS (Arthraxon hispidus (Thunb.) Makino, creek grass); experiment: as above; assay type: in vivo; details: Arthraxon hispidus, foliar, read-out: Plant damage (herbicidal activity), visually evaluated, ARTHIS; for pest or weed control at 25 g/ha: 0.025 kg/ha; for pest or weed control at 100 g/ha: 0.1 kg/ha; for pest or weed control at 200 g/ha: 0.2 kg/ha
Description: as §1

[4] = test system: SORBI (Andropogon sorghum, common sorgum); experiment: as above; assay type: in vivo; details: Sorghum bicolor, foliar, read-out: Plant damage (herbicidal activity), visually evaluated, SORBI; for pest or weed control at 25 g/ha: 0.025 kg/ha; for pest or weed control at 100 g/ha: 0.1 kg/ha; for pest or weed control at 200 g/ha: 0.2 kg/ha
Description: as §1

[5] = test system: ZEAMX (Zea mays L., corn); experiment: as above; assay type: in vivo; details: Zea mays, foliar, read-out: Plant damage (herbicidal activity), visually evaluated, ZEAMX; for plant injury at 25 g/ha: 0.025 kg/ha; for plant injury at 100 g/ha: 0.1 kg/ha; for plant injury at 200 g/ha: 0.2 kg/ha
Description: as §1

[6] = test system: PANDI (Panium dichotomiflorum Michx, fall panicum); experiment: as above; assay type: in vivo; details: Panicum dichotomiflorum, foliar, read-out: Plant damage (herbicidal activity), visually evaluated, PANDI; for pest or weed control at 25 g/ha: 0.025 kg/ha; for pest or weed control at 100 g/ha: 0.1 kg/ha; for pest or weed control at 200 g/ha: 0.2 kg/ha
Description: as §1

[7] = test system: DIGSA (Digitaria Sanguinalis (L.) SCOP, large crabgrass); experiment: as above; assay type: in vivo; details: Digitaria sanguinalis, foliar, read-out: Plant damage (herbicidal activity), visually evaluated, DIGSA; for pest or weed control at 25 g/ha: 0.025 kg/ha; for pest or weed control at 100 g/ha: 0.1 kg/ha; for pest or weed control at 200 g/ha: 0.2 kg/ha
Description: as §1

[8] = test system: HORVU (Hordeum vulgare L., barley); experiment: as above; details: in vivo
Description: as §1

[9] = test system: ORYSA (Oryza sativa cv. Dongjin, rice); experiment: as above; details: in vivo
Description: as §1

[10] = test system: GLXMA (Glycine max(L.) MERR, soy bean); experiment: as above; details: in vivo
Description: as §1

[11] = test system: TRZAW (Tritium aestivum L., wheat); experiment: as above; details: in vivo
Description: as §1

[12] = test system: Barnyard grass; experiment: Weed control test, 4-leaf stage plants (Test Example 1, Table 8); assay type: in vivo, Echinoch crus-galli Beauv. var. caudata Kitagawa
Text: as §1, with “[…],” for “After keeping the pots in a greenhouse at 20 to 30° C. allowing growth of the plants to the 3-leaf stage of the barnyard grass,”

Compound | pest or weed control at 25 g/ha [1] [%] | pest or weed control at 100 g/ha [1] [%] | pest or weed control at 200 g/ha [1] [%] | pest or weed control at 25 g/ha [2] [%] | pest or weed control at 100 g/ha [2] [%] | pest or weed control at 200 g/ha [2] [%] | pest or weed control at 25 g/ha [3] [%] | pest or weed control at 100 g/ha [3] [%] | pest or weed control at 200 g/ha [3] [%] | pest or weed control at 25 g/ha [4] [%] | pest or weed control at 100 g/ha [4] [%] | pest or weed control at 200 g/ha [4] [%] | plant injury at 25 g/ha [5] [%] | plant injury at 100 g/ha [5] [%] | plant injury at 200 g/ha [5] [%] | pest or weed control at 25 g/ha [6] [%] | pest or weed control at 100 g/ha [6] [%] | pest or weed control at 200 g/ha [6] [%] | pest or weed control at 25 g/ha [7] [%] | pest or weed control at 100 g/ha [7] [%] | further results
C[C@@H](Oc1ccc(Oc2ccc(C#N)cc2F)cc1)C(=O)Nc1nc2ccccc2s1 [Example 19, (R)-2-[4-(4-cyano-2-fluorophenoxy)phenoxy]propionic acid-N-(2-benzothiazolyl)amide] | 0 | 20 | 30 | 0 | 10 | 10 | 0 | 10 | 10 | 20 | 60 | 70 | 0 | 10 | 30 | 0 | 0 | 0 | 0 | 10 | pest or weed control at 200 g/ha [7]: 30%; Plant damage (herbicidal activity), visually evaluated, HORVU [8]: 0%; Plant damage (herbicidal activity), visually evaluated, ORYSA [9]: 0%; Plant damage (herbicidal activity), visually evaluated, GLXMA [10]: 0%; Plant damage (herbicidal activity), visually evaluated, TRZAW [11]: 0%
C[C@@H](Oc1ccc(Oc2ccc(C#N)cc2F)cc1)C(=O)Nc1nc2ccc(Cl)cc2s1 [Example 21, (R)-2-[4-(4-cyano-2-fluorophenoxy)phenoxy]propionic acid-N-(6-chloro-2-benzothiazolyl)amide] | 20 | 70 | 90 | 0 | 70 | 90 | 0 | 70 | 70 | 0 | 20 | 50 | 20 | 90 | 100 | 0 | 70 | 70 | 0 | 20 | pest or weed control at 200 g/ha [7]: 90%; Plant damage (herbicidal activity), visually evaluated, HORVU [8]: 0%; Plant damage (herbicidal activity), visually evaluated, ORYSA [9]: 0%; Plant damage (herbicidal activity), visually evaluated, GLXMA [10]: 0%; Plant damage (herbicidal activity), visually evaluated, TRZAW [11]: 0%
C[C@@H](Oc1ccc(Oc2ccc(C#N)cc2F)cc1)C(=O)Nc1nc2ccc(F)cc2s1 [Example 23, (R)-2-[4-(4-cyano-2-fluorophenoxy)phenoxy]propionic acid-N-(6-fluoro-2-benzothiazolyl)amide] | 20 | 50 | 50 | 0 | 0 | 20 | 0 | 0 | 10 | 0 | 20 | 20 | 10 | 90 | 90 | 0 | 0 | 10 | 0 | 20 | pest or weed control at 200 g/ha [7]: 20%; Plant damage (herbicidal activity), visually evaluated, HORVU [8]: 0%; Plant damage (herbicidal activity), visually evaluated, ORYSA [9]: 0%; Plant damage (herbicidal activity), visually evaluated, GLXMA [10]: 0%; Plant damage (herbicidal activity), visually evaluated, TRZAW [11]: 0%
COc1ccc2nc(NC(=O)[C@@H](C)Oc3ccc(Oc4ccc(C#N)cc4F)cc3)sc2c1 [Example 27, (R)-2-[4-(4-cyano-2-fluorophenoxy)phenoxy]propionic acid-N-(6-methoxy-2-benzothiazolyl)amide] | 20 | 70 | 90 | 0 | 0 | 20 | 0 | 0 | 10 | 0 | 20 | 20 | 10 | 90 | 90 | 0 | 0 | 10 | 0 | 20 | pest or weed control at 200 g/ha [7]: 90%; Plant damage (herbicidal activity), visually evaluated, HORVU [8]: 0%; Plant damage (herbicidal activity), visually evaluated, GLXMA [10]: 0%; Plant damage (herbicidal activity), visually evaluated, TRZAW [11]: 0%
Cc1ccnc(NC(=O)[C@@H](C)Oc2ccc(Oc3ccc(C#N)cc3F)cc2)c1 [Example 33, (R)-2-[4-(4-cyano-2-fluorophenoxy)phenoxy]propionic acid-N-(4-methyl-2-pyridinyl)amide] | – | – | – | – | – | – | – | – | – | – | – | – | – | – | – | – | – | – | – | – | Plant damage (herbicidal activity), visually evaluated, Barnyard grass ([12]; 0.025 kg/ha): 10%; Plant damage (herbicidal activity), visually evaluated, Barnyard grass ([12]; 0.05 kg/ha): 40%; Plant damage (herbicidal activity), visually evaluated, Barnyard grass ([12]; 0.1 kg/ha): 100%; Plant damage (herbicidal activity), visually evaluated, Barnyard grass ([12]; 0.4 kg/ha): 100%
C[C@@H](Oc1ccc(OC(F)=Cc2ccc(F)cc2)cc1)C(=O)Nc1nc2cc(Cl)ccc2o1 [Example 52, (R)-2-[4-(1-fluoro-2-(4-fluorophenyl)vinyloxy)phenoxy]propionic acid-N-(5-chloro-2-benzoxazolyl)amide] | 0 | 0 | 20 | 0 | 0 | 10 | 0 | 0 | 0 | 0 | 0 | 0 | 10 | 30 | 30 | 0 | 0 | 0 | 0 | 0 | pest or weed control at 200 g/ha [7]: 10%; Plant damage (herbicidal activity), visually evaluated, HORVU [8]: 0%; Plant damage (herbicidal activity), visually evaluated, GLXMA [10]: 0%; Plant damage (herbicidal activity), visually evaluated, TRZAW [11]: 0%
